Structures can show the parent of a compound that is named as a salt.
What was measured:
[1] = molecular target: T1, recombinant human 5-HT6 receptor (Homo sapiens, UniProt P50406); assay: Radioligand binding, competition for [3H]LSD in HEK293 cell membranes; settings: [3H]LSD displacement, pH 7.4, 37° C., 75 min, read-out: pKi for 5-HT6 (converted)
T1 construct: expressed in transfected cells; host or cells: HEK293
Protocol: (§1) The binding activity of compounds of this invention in vitro was determined as follows. Duplicate determinations of 5-HT6 ligand affinity were made by competing for binding of [^3H]LSD in cell membranes derived from HEK293 cells stably expressing recombinant human 5-HT6 receptor. Duplicate determinations of 5-HT2A ligand affinity were made by competing for binding of [^3H]Ketanserin (3-(2-(4-(4-fluorobenzoyl)piperidinol)ethyl)-2,4(1H,3H)-quinazolinedione) in cell membranes derived from CHO-K1 cells stably expressing recombinant human 5-HT2A receptor. Membranes were prepared from HEK 293 cell lines by the method described by Monsma et al., Molecular Pharmacology, Vol. 43 pp. 320-327 (1993), and from CHO-K1 cell lines as described by Bonhaus et al., Br J Pharmacol. June; 115(4):622-8 (1995).
(§2) For estimation of affinity at the 5-HT6 receptor, all determinations were made in assay buffer containing 50 mM Tris-HCl, 10 mM MgSO4, 0.5 mM EDTA, 1 mM ascorbic acid, pH 7.4 at 37° C., in a 250 microliter reaction volume. […]
(§3) Assay tubes containing [^3H] […] LSD or [^3H]Ketanserin were determined as radioactive counts per minute using Packard TopCount.
(§4) Displacement of [^3H]LSD or [^3H]Ketanserin from the binding sites was quantified by fitting concentration-binding data to a 4-parameter logistic equation: […]

[2] = molecular target: T2, recombinant human 5-HT2A receptor (Homo sapiens, UniProt P28223); assay: Radioligand binding, competition for [3H]Ketanserin in CHO-K1 cell membranes; settings: [3H]Ketanserin displacement, pH 7.4, 32° C., 60 min, read-out: pKi for 5-HT2A (converted)
T2 construct: expressed in transfected cells; host or cells: CHO-K1
Protocol: as §1, §2, §3, §4

T1 sequence (P50406 whole entry): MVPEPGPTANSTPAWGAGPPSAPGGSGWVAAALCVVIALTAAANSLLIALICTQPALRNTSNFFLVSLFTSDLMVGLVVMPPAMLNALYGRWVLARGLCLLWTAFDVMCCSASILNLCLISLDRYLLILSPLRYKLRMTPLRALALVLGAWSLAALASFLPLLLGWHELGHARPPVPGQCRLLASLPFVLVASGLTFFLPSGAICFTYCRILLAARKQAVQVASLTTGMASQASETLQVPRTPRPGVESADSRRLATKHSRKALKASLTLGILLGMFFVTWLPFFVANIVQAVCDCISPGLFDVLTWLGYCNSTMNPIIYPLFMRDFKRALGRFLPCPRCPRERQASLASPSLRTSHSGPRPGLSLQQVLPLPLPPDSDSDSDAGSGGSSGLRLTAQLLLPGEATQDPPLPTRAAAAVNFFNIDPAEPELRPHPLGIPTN
T2 sequence (P28223 whole entry): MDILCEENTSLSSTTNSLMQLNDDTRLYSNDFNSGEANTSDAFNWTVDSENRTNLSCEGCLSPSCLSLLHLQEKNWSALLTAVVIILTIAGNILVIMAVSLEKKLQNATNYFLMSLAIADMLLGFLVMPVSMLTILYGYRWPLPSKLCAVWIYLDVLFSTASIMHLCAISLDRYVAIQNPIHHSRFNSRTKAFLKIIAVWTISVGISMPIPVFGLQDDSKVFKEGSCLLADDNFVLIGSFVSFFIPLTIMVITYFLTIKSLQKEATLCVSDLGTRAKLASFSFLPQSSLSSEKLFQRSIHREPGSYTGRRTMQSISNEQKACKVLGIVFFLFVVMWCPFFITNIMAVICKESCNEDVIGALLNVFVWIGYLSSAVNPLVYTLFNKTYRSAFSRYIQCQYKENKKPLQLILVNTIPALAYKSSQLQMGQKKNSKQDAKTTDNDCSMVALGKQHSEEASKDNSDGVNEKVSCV

SMILES	Ki [1] [nM]	Ki [2] [nM]	melting point [°C]
NCC1CCOc2cc(S(=O)(=O)c3ccccc3)ccc21 (stereo not drawn) [C-(7-Benzenesulfonyl-chroman-4-yl)-methylamine]	~0.724	~20.4	
CNCC1CCOc2cc(S(=O)(=O)c3ccccc3)ccc21 (stereo not drawn) (as salt: HCl)			158.1 to 159.8

Source: patent publication US7759389B2, “Chroman derivatives and uses thereof” (Roche Palo Alto LLC, priority 2004, dated 2010)
